Results published in PMC3691235, “Discovery of a Novel Dual Fungal CYP51/Human 5-Lipoxygenase Inhibitor: Implications for Anti-Fungal Therapy” (PLoS ONE, 2013).
Where two headings read alike, the source gives them in different places.

Tests used:
Assay type in all cases: biochemical
[1] = target: T1, Human leukocyte 5-lipoxygenase (Homo sapiens, UniProt P09917); assay: Lipoxygenase UV-based inhibitor assay, 5-LOX
T1 construct: made in house
T1 sequence (P09917 1-674): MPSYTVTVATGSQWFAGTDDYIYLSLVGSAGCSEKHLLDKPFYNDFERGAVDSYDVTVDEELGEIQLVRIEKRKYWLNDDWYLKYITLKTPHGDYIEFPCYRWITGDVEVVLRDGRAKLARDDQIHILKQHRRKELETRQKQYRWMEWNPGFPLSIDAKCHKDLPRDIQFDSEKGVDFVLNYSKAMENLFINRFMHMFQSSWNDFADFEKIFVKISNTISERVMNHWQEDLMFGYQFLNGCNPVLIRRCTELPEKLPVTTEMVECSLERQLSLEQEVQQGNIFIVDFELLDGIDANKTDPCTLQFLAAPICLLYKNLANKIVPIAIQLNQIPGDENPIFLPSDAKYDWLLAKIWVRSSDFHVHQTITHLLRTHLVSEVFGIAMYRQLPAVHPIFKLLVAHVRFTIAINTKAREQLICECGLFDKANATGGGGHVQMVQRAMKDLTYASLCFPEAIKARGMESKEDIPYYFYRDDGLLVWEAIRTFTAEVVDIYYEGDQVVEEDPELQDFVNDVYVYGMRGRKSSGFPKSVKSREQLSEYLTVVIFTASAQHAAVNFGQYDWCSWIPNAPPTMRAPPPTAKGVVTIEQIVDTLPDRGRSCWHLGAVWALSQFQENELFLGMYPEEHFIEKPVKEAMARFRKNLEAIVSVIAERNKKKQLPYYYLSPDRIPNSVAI
Protocol: (§1) Human leukocyte 5-lipoxygenase was expressed as a non-tagged protein and used as a crude ammonium sulfate protein fraction, as published previously.
(§2) Inhibitor potencies were evaluated through use of the standard UV-based inhibitor assay. The initial rates were determined by following the formation of the conjugated diene product at 234 nm (ε = 25,000 M^−1 cm^−1) with a Perkin-Elmer Lambda 40 UV/Vis spectrophotometer at one substrate concentration and varying inhibitor concentrations. All reactions were 2 mL in volume and constantly stirred using a magnetic stir bar at room temperature (23°C), with the enzyme specific buffer conditions outlined in Table 1. The substrate used for the various isozymes was arachidonic acid (AA) for 5-LOX, 12-LOX, and 15-LOX-2 and linoleic acid (LA) for 15-LOX-1, where concentrations were quantitatively determined by allowing the enzymatic reaction to go to completion. IC50 values were obtained by determining the initial rate at various inhibitor concentrations and plotting them against inhibitor concentration, followed by a hyperbolic saturation curve fit. The data used for the saturation curves were performed in duplicate or triplicate, depending on the quality of the data. […] Inhibitors were stored at −20°C in DMSO. […] The solvent isotope effect of the inhibitor IC50 was investigated utilizing the same conditions and methods as stated above. The pH of the buffered D2O was determined as reported previously.

[2] = target: T2, human platelet 12-lipoxygenase (12-LOX) (Homo sapiens, UniProt P18054); assay: Lipoxygenase UV-based inhibitor assay, 12-LOX; details: 10 µM AA, pH 8.0
T2 construct: His6 (N); made in house
T2 sequence (P18054 1-663): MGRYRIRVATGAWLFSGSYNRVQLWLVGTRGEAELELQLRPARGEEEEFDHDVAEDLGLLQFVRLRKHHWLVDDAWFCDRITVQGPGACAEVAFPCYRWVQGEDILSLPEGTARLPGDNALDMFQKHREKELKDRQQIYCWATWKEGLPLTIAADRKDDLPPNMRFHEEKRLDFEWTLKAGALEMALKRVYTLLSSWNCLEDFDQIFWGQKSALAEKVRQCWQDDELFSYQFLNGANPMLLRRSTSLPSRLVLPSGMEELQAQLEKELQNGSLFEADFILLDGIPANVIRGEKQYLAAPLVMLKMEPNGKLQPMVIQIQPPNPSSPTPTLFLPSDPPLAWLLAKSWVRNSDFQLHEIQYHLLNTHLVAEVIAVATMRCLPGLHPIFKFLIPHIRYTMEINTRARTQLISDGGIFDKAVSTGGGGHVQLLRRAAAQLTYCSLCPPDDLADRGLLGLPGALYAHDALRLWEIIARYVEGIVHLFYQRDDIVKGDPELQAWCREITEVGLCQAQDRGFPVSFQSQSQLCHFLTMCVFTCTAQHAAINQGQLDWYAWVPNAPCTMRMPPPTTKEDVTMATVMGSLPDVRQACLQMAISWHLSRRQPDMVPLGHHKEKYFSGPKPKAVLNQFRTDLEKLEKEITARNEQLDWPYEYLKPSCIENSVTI
Protocol: as §1, §2

[3] = target: T3, Ovine COX-1 (Ovis aries, UniProt P05979); assay: Cyclooxygenase assay (oxygen electrode), COX-1
T3 construct: purchased Cayman chemical 60100
T3 sequence (P05979 25-600): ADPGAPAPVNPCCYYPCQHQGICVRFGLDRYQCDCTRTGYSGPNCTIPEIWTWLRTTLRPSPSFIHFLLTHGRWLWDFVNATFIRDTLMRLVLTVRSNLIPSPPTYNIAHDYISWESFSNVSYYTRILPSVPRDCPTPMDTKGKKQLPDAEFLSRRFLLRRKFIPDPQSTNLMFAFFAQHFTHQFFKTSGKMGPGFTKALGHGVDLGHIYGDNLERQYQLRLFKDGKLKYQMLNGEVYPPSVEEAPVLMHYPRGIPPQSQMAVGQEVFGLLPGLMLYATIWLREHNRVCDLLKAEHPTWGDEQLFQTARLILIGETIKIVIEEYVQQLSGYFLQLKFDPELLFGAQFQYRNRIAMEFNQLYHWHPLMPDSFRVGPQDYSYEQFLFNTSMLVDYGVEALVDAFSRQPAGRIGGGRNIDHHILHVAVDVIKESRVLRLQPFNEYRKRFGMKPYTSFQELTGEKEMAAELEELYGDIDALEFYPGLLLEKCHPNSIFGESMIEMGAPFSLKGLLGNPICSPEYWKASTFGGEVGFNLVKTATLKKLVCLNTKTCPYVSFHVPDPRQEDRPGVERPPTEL
Protocol: Ovine COX-1 (Cat. No. 60100) and human COX-2 (Cat. No. 60122) were purchased from Cayman chemical. Approximately 2 µg of either COX-1 or COX-2 were added to buffer containing 100 µM AA, 0.1 M Tris-HCl buffer (pH 8.0), 5 mM EDTA, 2 mM phenol and 1 µM hematin at 37°C. Data was collected using a Hansatech DW1 oxygen electrode chamber, as described before. Inhibitor or vehicle were mixed with the respective COX in buffer within the electrode cell, the reaction was initiated by the addition of AA, followed by monitoring of rate of oxygen consumption. Ibuprofen, aspirin and indomethacin, and the carrier solvent, DMSO, were used as positive and negative controls, respectively.

[4] = UV-based assay, 10 µM AA, pH 7.3, crude enzyme, error = SD, read-out: 5-LOX IC50
[5] = 100 µM AA, pH 8.0, 37°C, oxygen consumption, read-out: COX-1 IC50
[6] = UV-based assay, read-out: 5-LOX IC50

IC50 [1, 4] [µM] | IC50 [2] [µM] | IC50 [3, 5] [µM] | increase in 5-LOX IC50 in D2O relative to H2O (solvent isotope effect) ([1]; D2O buffer vs H2O) [fold] | selectivity for 5-LOX over 12-LOX, 15-LOX-1, 15-LOX-2, COX-1 and COX-2 [1] | IC50 [1, 6] [µM] | SMILES | IC50 [1] [µM] | IC50 [3] [µM]
0.17 | > 150 | > 50 | – | – | – | CC(C)(C)OC(=O)N1CCN(c2ccc(NCc3ccc(-c4ccc(C#N)cc4)o3)cc2)CC1 [Compound 1] | – | –
0.52 | > 50 | > 150 | 2.4 | – | – | CC(=O)N1CCN(c2ccc(NCc3ccc(-c4cccc(Cl)c4)o3)cc2)CC1 [Compound 13] | – | –
0.33 | > 150 | > 150 | – | – | – | N#Cc1ccc(-c2ccc(CNc3ccc(N4CCCCC4)cc3)o2)cc1 [Compound 14] | – | –
11 ± 1 | > 100 | > 50 | – | – | – | Cc1cc(C2CCCCC2)n(O)c(=O)c1 [ciclopirox, reference compound] | – | –
0.7 | > 150 | > 150 | – | over 100 times | 0.7 | CC(=O)N1CCN(c2ccc(NCC3COC(Cn4ccnc4)(c4ccc(Cl)cc4Cl)O3)cc2)CC1 (centres unmarked) [ketaminazole (16), ketaminazole] | – | –
– | > 150 | – | – | – | 0.06 ± 0.006 | CC[C@](O)(c1nnc(NCc2ccc3c(-c4ccc(F)cc4)cc(=O)oc3c2)o1)C(F)(F)F [setileuton, reference compound] | – | –

SMILES | IC50 [1, 4] [µM] | IC50 [2] [µM] | IC50 [3, 5] [µM] | increase in 5-LOX IC50 in D2O relative to H2O (solvent isotope effect) ([1]; D2O buffer vs H2O) [fold] | selectivity for 5-LOX over 12-LOX, 15-LOX-1, 15-LOX-2, COX-1 and COX-2 [1] | IC50 [1, 6] [µM] | IC50 [1] [µM] | IC50 [3] [µM]
CC(=O)N1CCN(c2ccc(OCC3COC(Cn4ccnc4)(c4ccc(Cl)cc4Cl)O3)cc2)CC1 (centres unmarked) [ketoconazole, reference compound] | – | > 150 | – | – | – | – | > 50 | > 50
